The record followed here is ChEMBL document CHEMBL1921734 (Bioorg Med Chem, 2011).

One may read the IC50 as the midpoint of a concentration-inhibition curve.

A short description of test [1]: Inhibition of Sprague-Dawley rat adrenal gland 11-hydroxylase using [1,2-3H]-hydroxy-11-deoxycorticosterone as substrate after 30 mins by TLC analysis. It counts as tissue-based.
Test [2] deals with T1, Steroid 17-alpha-hydroxylase/17,20 lyase (Homo sapiens, UniProt P05093).
T1 sequence (P05093 whole entry): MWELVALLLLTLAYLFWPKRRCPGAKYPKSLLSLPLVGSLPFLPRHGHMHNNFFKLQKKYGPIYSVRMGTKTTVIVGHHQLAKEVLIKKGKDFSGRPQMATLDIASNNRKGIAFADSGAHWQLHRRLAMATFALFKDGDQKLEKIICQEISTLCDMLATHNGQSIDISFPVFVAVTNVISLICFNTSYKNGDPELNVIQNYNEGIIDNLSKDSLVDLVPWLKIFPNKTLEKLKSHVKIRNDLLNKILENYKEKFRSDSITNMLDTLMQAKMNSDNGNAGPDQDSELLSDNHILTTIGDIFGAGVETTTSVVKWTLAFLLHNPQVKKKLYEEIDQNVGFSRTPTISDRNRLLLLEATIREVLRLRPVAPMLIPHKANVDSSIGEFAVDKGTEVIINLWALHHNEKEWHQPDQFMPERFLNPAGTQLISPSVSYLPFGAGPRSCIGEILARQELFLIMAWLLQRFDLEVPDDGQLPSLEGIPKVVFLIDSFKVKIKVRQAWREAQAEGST
Kind of test: Inhibition of 17,20-lyase of recombinant human CYP17A1 using [1,2-3H]-17a-hydroxypregnenolone as substrate after 15 mins by TLC analysis.

The target of test [3] is T2, Cytochrome P450 3A4 (Homo sapiens, UniProt P08684). Put plainly: Inhibition of recombinant human CYP3A4 assessed as conversion of testosterone into 6-hydroxytestosterone after 30 mins by HPLC analysis. Type of test: ADME.
T2 sequence (P08684 whole entry): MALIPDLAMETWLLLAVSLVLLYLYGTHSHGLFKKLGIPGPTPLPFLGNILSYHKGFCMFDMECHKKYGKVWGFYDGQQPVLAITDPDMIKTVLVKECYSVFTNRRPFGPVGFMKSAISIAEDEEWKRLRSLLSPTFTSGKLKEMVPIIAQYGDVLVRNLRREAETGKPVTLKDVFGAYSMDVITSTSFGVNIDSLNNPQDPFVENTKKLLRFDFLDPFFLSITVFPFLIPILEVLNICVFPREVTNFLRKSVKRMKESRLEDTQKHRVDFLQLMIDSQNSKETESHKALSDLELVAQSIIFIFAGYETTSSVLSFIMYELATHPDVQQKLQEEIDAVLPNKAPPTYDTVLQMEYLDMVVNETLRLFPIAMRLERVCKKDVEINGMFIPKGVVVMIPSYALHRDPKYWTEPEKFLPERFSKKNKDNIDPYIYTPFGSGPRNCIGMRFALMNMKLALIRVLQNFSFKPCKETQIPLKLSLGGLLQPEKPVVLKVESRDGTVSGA
The target of test [4] is T3, Steroid 17-alpha-hydroxylase/17,20 lyase (Rattus norvegicus, UniProt P11715).
T3 sequence (P11715 whole entry): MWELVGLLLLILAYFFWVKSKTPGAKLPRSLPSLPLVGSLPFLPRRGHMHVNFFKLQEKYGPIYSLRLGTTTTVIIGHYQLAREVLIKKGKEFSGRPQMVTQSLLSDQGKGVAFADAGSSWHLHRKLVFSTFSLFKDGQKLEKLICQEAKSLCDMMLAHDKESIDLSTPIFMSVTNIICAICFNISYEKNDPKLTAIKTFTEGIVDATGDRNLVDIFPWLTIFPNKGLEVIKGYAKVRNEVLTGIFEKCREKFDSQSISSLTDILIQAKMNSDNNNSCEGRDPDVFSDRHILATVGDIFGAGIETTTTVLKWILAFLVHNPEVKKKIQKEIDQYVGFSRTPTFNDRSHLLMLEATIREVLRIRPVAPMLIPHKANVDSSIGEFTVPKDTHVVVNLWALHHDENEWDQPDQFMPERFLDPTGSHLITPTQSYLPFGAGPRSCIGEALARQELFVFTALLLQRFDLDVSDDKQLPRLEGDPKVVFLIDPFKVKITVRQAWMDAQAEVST
Kind of test: Inhibition of 17,20-lyase activity of Sprague-Dawley rat testicular microsomal CYP17A1 using [1,2-3H]-17a-hydroxyprogesterone as substrate after 15 mins by TLC analysis. The arrangement: species or system Testis.

Test [5] has as its target T1, Steroid 17-alpha-hydroxylase/17,20 lyase. Put plainly: Inhibition of 17,20-lyase activity of human CYP17A1.
The target in test [6] is T2, Cytochrome P450 3A4. Put plainly: Inhibition of CYP3A4. Type of test: ADME.
Test [7] deals with Cynomolgus monkey. Kind of test: Reduction of serum DHEA level in cynomolgus monkey at 1 mg/kg, po after 8 hrs by radioimmunoassay (reference value: 25 +/- 6.2%). It counts as functional, Macaca fascicularis. The arrangement: scale not given: the % may be the effect or the level left.
In test [8] the test system is Cynomolgus monkey. Put plainly: Reduction of serum testosterone level in cynomolgus monkey at 1 mg/kg, po after 8 hrs by radioimmunoassay (reference value: 296 +/- 277%). It counts as functional, Macaca fascicularis. Also on record: scale not given: the % may be the effect or the level left.
For test [9], the system named is Cynomolgus monkey. Put plainly: Reduction of serum DHEA level in cynomolgus monkey at 1 mg/kg, po after 10 hrs by radioimmunoassay (reference value: 7.2 +/- 0.99%). It counts as functional, Macaca fascicularis. Also on record: scale not given: the % may be the effect or the level left.
In test [10] the test system is Cynomolgus monkey. Put plainly: Reduction of serum DHEA level in cynomolgus monkey at 1 mg/kg, po after 8 hrs by radioimmunoassay (reference value: 54 +/- 25%). Type of test: functional, Macaca fascicularis. The arrangement: scale not given: the % may be the effect or the level left.
In test [11] the test system is Cynomolgus monkey. Put plainly: Reduction of serum testosterone level in cynomolgus monkey at 1 mg/kg, po after 8 hrs by radioimmunoassay (reference value: 101 +/- 54%). It counts as functional, Macaca fascicularis. The arrangement: scale not given: the % may be the effect or the level left.
For test [12], the system named is Cynomolgus monkey. Kind of test: Reduction of serum testosterone level in cynomolgus monkey at 1 mg/kg, po after 10 hrs by radioimmunoassay (reference value: 269.8 +/- 94.5%). Type of test: functional, Macaca fascicularis. The arrangement: scale not given: the % may be the effect or the level left.
The target in test [13] is Cytochrome P450 2D6 (Homo sapiens, UniProt P10635). Put plainly: Inhibition of human B-lymphoblastoid cell microsomal CYP2D6 assessed as (+)-bufuralol 1'-hydroxylation preincubated for 5 mins with substrate. It counts as ADME.
Sequence of Cytochrome P450 2D6 (P10635 whole entry): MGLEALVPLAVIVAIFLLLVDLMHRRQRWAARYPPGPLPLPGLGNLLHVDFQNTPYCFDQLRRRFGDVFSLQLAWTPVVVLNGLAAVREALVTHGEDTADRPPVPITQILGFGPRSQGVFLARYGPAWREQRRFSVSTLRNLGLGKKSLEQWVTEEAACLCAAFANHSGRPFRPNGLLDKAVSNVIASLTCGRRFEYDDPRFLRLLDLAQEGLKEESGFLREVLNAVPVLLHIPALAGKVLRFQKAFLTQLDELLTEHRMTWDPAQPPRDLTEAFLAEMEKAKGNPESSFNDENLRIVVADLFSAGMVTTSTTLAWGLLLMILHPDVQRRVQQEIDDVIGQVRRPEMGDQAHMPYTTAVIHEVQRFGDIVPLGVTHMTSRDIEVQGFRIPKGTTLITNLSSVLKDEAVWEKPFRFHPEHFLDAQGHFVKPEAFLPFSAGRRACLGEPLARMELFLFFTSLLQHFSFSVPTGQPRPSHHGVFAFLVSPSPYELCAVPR
The test system of test [14] is Cynomolgus monkey. Put plainly: Reduction of serum testosterone level in cynomolgus monkey at 1 mg/kg, po after 5 hrs by radioimmunoassay (reference value: 63 +/- 19.2%). Type of test: functional, Macaca fascicularis. Also on record: scale not given: the % may be the effect or the level left.
Test [15] relates to Cynomolgus monkey. Kind of test: Reduction of serum DHEA level in cynomolgus monkey at 1 mg/kg, po after 2 hrs by radioimmunoassay (reference value: 97.9 +/- 22.3%). Type of test: functional, Macaca fascicularis. Also on record: scale not given: the % may be the effect or the level left.
Test [16] has as its system Cynomolgus monkey. Put plainly: Reduction of serum testosterone level in cynomolgus monkey at 1 mg/kg, po after 2 hrs by radioimmunoassay (reference value: 90 +/- 16.6%). Also on record: scale not given: the % may be the effect or the level left. It counts as functional, Macaca fascicularis.
Test [17] concerns the target T4, Cytochrome P450 1A2 (Homo sapiens, UniProt P05177).
T4 sequence (P05177 whole entry): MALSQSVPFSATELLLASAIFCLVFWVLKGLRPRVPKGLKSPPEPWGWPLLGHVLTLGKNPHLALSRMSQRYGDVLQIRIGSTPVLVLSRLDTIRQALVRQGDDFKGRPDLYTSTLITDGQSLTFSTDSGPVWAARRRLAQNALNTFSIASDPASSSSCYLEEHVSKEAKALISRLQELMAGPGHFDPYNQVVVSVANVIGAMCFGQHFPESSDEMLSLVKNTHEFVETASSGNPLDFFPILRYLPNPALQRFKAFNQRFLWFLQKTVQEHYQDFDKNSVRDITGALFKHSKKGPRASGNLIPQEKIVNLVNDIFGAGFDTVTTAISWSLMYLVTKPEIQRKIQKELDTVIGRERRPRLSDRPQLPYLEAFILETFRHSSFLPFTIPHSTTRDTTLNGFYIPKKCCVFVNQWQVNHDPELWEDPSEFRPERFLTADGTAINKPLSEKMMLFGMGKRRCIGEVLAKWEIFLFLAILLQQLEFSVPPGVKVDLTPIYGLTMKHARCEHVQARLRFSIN
Put plainly: Inhibition of human B-lymphoblastoid cell microsomal CYP1A2 assessed as 7-ethoxyresorufin O-deethylation preincubated for 5 mins with substrate. Type of test: ADME.

The test system of test [18] is Cynomolgus monkey. Put plainly: Reduction of serum DHEA level in cynomolgus monkey at 1 mg/kg, po after 5 hrs by radioimmunoassay (reference value: 88.6 +/- 4.4%). It counts as functional, Macaca fascicularis. Also on record: scale not given: the % may be the effect or the level left.
Test [19] concerns the target T5, Cytochrome P450 2C8 (Homo sapiens, UniProt P10632).
T5 sequence (P10632 whole entry): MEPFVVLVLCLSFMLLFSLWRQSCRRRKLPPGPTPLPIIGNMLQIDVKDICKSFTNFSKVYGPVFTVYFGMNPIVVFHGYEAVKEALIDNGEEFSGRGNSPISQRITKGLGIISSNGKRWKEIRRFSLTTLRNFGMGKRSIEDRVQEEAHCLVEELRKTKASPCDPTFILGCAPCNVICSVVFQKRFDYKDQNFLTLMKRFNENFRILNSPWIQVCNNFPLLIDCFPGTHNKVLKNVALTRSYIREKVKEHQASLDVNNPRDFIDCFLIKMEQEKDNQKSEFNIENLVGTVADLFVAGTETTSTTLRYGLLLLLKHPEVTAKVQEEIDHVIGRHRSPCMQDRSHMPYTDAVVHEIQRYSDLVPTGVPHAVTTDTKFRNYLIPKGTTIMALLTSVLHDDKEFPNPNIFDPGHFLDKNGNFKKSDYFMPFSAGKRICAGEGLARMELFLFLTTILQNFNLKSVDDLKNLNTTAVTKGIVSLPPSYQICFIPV
Put plainly: Inhibition of human B-lymphoblastoid cell microsomal CYP2C8 assessed as Tolbutamide hydroxylation preincubated for 5 mins with substrate. Type of test: ADME.

Turning to `CC(C)NC(=O)c1ccc2cc(C3(O)CCn4cncc43)ccc2c1` (racemic), the IC50 in test [1] is over 1 µM; in [2], 0.4 µM; in test [3], over 10 µM; in test [4] it was 0.16 µM.

Turning to `NC(=O)c1ccc2cc(C3(O)CCn4cncc43)ccc2c1` (racemic), the IC50 was 0.1 µM in [1], 0.029 µM in test [2], over 10 µM in test [3] and 0.024 µM in [4].

The compound `CNC(=O)c1ccc2cc(C(O)(c3c[nH]cn3)C(C)C)ccc2c1` (racemic) showed an IC50 in [1] of over 1 µM.

Consider `CNC(=O)c1ccc2cc([C@](O)(c3c[nH]cn3)C(C)C)ccc2c1`, for which the IC50 in test [5] came to 0.0055 µM; in test [6], 7.8 µM.

Compound `CNC(=O)c1ccc2cc(C3(O)CCn4cncc43)ccc2c1` (racemic) displayed an IC50 in [1] of over 1 µM.

For the compound `CNC(=O)c1ccc2cc(C3(O)c4cncn4CC3(C)C)ccc2c1` (racemic), the IC50 in [1] came to 0.52 µM; in test [2], 0.088 µM; in [3], 3.2 µM; in test [4], 0.11 µM.

Consider `CNC(=O)c1ccc2cc(C(C)(O)c3cncn3C)ccc2c1` (racemic), for which the IC50 is over 1 µM in test [1], 0.41 µM in [2], 6.9 µM in test [3] and over 1 µM in [4].

Take `CCNC(=O)c1ccc2cc(C3(O)CCn4cncc43)ccc2c1` (racemic): the IC50 in [1] is over 1 µM; in test [2] it was 0.19 µM; in test [3] it was over 10 µM; in test [4], 0.11 µM.

`CNC(=O)c1ccc2cc([C@]3(O)CCn4cncc43)ccc2c1`: the half-maximal inhibitory concentration (IC50) is over 1 µM in [1] and 0.18 µM in test [4]. Moreover, the values for the Activity in [7] and in test [8] were 91% and 258%, respectively.

With `O=C(NC1CC1)c1ccc2cc(C3(O)CCn4cncc43)ccc2c1` (racemic), the IC50 in test [1] was over 1 µM; in [2], 0.29 µM; in [3] it was over 10 µM; in test [4], 0.1 µM.

Take `CNC(=O)c1ccc2cc([C@@]3(O)CCn4cncc43)ccc2c1` [ORTERONEL]: the Activity is given as 7.6% in test [9]; 12% in test [10]; 30% in [11]; 55.6% in [12]; 14.2% in test [14]; 61.1% in [15]. In addition, the results for the Activity in [16] and in test [18] were 75.9% and 32.8%, respectively. The IC50 in test [1] is over 1 µM; in test [13] it was over 30 µM; in test [4] it was 0.048 µM; in test [17] it was 28 µM; in [19], over 30 µM.

Consider `CNC(=O)c1ccc2cc(C3CCn4cncc43)ccc2c1` (racemic), for which the 50% inhibitory concentration (IC50) in test [1] was 0.29 µM; in test [2], 0.013 µM; in test [3] it was under 1 µM; in test [4] it was 0.015 µM.
